20 molecules from paper PMC3314994, “Inhibitors of human histone deacetylase with potent activity against the African trypanosome Trypanosoma brucei” (Bioorganic & Medicinal Chemistry Letters, 2012) can be followed below.

Assay [1] has as its system Trypanosoma brucei (BSF). The assay is described as follows: Growth inhibition of cultured bloodstream form T. brucei. Format: cell-based, Trypanosoma brucei (strain 427). Particulars: Trypanosoma brucei, cultured bloodstream form, strain 427, triplicate; for IC50: read-out: Trypanosoma brucei (BSF) IC50 ± SD; for IC90: read-out: Trypanosoma brucei (BSF) IC90 ± SD. Here is the method: Treatment of parasites with micromolar levels of these inhibitors could result in cell death within 4 h (Fig. 1).
[30] Growth inhibitory properties against cultured bloodstream form T. brucei were determined as described previously.[29] Experiments were performed in triplicate and data are presented as ±SD.

The subject of assay [2] is HDAC (FDL_HELA). The assay is described as follows: Histone deacetylase activity in HeLa cell lysates (fluorescent assay kit). Format: biochemical, Human. Particulars: lysed HeLa cells; read-out: HDAC (FDL_HELA) IC50 ± SD. The procedure: (§1) The compounds from the different structural subclasses were all active as HDAC inhibitors, measured in an assay of enzymes in HeLa cell lysates.[23,24] HeLa cells express multiple HDACs, including HDAC 1, 2, 3, 4, and 8.[25–27] […] To further characterise the compounds with respect to HDAC selectivity, we determined their inhibitory properties against recombinant expressed human HDACs (rhHDAC 1–4, 6–9).[28]
[24] Histone deacetylase activity was determined in lysed Human cervix epithelial cancer HeLa cells. To determine the IC50 of test compound a commercially available fluorescent assay kit was used employing an acetylated enzyme substrate.[23]

Assay [3] concerns the target rhHDAC 2 (Homo sapiens, UniProt Q92769). In words: Inhibition of recombinant human HDAC isoforms. Type of assay: biochemical. Particulars: mean ± SD, triplicate per plate, min two plates; read-out: ED50 rhHDAC 2.
Source text: as §1

Assay [4] addresses rhHDAC 3 (Homo sapiens, UniProt O15379). In words: Inhibition of recombinant human HDAC isoforms. Format: biochemical. Particulars: mean ± SD, triplicate per plate, min two plates; read-out: ED50 rhHDAC 3.
Source text: as §1

Assay [5] has as its target T1, rhHDAC 6 (Homo sapiens, UniProt Q9UBN7).
T1 sequence (Q9UBN7 1-1215): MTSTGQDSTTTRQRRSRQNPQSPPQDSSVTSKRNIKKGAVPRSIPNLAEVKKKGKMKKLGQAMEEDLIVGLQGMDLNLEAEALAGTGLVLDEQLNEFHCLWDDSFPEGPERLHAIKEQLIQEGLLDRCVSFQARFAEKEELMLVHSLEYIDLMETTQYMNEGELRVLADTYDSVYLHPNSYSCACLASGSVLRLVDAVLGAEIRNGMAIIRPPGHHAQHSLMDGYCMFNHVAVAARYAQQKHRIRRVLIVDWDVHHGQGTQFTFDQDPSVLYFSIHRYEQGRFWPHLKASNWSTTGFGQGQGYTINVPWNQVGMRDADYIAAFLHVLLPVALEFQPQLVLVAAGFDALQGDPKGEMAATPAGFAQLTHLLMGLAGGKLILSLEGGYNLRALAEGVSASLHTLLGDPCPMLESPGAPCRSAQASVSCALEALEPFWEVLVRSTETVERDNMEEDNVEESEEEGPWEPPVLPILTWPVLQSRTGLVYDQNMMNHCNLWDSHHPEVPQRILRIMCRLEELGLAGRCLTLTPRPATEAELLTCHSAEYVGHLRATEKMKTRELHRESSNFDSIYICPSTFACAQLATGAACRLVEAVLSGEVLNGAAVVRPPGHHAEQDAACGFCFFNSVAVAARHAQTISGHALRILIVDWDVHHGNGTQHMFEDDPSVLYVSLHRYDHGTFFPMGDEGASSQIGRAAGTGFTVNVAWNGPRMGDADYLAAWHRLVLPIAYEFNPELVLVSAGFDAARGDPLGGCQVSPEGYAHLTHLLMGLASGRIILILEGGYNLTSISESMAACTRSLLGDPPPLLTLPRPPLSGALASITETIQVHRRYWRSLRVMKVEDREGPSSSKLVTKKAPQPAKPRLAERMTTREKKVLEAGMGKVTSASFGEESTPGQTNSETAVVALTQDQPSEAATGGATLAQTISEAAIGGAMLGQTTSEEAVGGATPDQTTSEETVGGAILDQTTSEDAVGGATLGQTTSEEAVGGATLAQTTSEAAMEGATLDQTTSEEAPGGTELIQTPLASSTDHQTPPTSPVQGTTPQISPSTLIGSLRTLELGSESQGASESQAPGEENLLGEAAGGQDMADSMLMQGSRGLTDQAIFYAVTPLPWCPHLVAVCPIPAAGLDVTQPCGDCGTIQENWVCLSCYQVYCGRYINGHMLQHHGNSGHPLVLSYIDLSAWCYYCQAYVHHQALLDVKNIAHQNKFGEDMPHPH
In words: Inhibition of recombinant human HDAC isoforms. Format: biochemical. The conditions noted are these: mean ± SD, triplicate per plate, min two plates; read-out: ED50 rhHDAC 6.
Source text: as §1

Assay [6] addresses T2, rhHDAC 7 (Homo sapiens, UniProt Q8WUI4).
T2 sequence (Q8WUI4 1-952): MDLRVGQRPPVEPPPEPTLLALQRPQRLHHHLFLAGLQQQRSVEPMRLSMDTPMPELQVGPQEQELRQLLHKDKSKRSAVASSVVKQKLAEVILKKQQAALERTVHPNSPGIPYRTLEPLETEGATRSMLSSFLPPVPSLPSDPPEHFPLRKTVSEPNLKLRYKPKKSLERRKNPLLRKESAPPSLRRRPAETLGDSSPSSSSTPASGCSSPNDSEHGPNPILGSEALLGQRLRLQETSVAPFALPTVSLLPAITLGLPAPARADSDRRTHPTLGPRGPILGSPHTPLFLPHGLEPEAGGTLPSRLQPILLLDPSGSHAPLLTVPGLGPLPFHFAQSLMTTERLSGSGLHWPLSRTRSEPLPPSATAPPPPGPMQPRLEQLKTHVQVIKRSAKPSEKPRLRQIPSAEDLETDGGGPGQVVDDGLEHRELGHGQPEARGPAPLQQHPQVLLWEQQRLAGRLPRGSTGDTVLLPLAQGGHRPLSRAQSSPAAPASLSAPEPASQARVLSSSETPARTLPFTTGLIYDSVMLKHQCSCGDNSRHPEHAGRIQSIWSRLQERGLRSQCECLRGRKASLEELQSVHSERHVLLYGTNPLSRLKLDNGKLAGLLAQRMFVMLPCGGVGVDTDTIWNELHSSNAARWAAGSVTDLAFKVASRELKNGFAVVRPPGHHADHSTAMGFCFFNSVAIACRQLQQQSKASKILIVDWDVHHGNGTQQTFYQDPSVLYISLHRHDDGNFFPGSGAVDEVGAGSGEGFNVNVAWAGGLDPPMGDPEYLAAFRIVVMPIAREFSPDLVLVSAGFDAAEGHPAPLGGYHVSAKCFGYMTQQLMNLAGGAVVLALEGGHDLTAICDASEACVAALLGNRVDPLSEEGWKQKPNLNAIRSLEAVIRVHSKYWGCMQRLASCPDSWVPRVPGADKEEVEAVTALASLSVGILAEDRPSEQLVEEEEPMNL
In words: Inhibition of recombinant human HDAC isoforms. Type of assay: biochemical. Particulars: mean ± SD, triplicate per plate, min two plates; read-out: ED50 rhHDAC 7.
Source text: as §1

Assay [7] deals with T3, rhHDAC 8 (Homo sapiens, UniProt Q9BY41).
T3 sequence (Q9BY41 1-377): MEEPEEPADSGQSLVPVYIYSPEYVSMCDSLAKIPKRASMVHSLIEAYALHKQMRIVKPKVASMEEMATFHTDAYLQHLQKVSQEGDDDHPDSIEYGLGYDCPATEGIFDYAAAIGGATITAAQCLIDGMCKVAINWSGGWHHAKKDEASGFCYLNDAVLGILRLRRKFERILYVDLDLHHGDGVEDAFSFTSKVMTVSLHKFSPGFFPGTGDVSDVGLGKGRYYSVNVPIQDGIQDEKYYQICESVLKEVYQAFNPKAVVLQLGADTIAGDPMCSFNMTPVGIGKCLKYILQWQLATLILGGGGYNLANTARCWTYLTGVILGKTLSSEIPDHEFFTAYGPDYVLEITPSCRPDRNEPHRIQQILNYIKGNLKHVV
In words: Inhibition of recombinant human HDAC isoforms. The conditions noted are these: mean ± SD, triplicate per plate, min two plates; read-out: ED50 rhHDAC 8. Type of assay: biochemical.
Source text: as §1

In assay [8] the target is rhHDAC 9 (Homo sapiens, UniProt Q9UKV0). The assay is described as follows: Inhibition of recombinant human HDAC isoforms. Type of assay: biochemical. The conditions noted are these: mean ± SD, triplicate per plate, min two plates; read-out: ED50 rhHDAC 9.
Source text: as §1

In assay [9] the target is rhHDAC 1 (Homo sapiens, UniProt Q13547). The assay is described as follows: Inhibition of recombinant human HDAC isoforms. Format: biochemical. Particulars: mean ± SD, triplicate per plate, min two plates; read-out: ED50 rhHDAC 1.
Source text: as §1

rhHDAC 9, sequence (Q9UKV0 whole entry, canonical isoform): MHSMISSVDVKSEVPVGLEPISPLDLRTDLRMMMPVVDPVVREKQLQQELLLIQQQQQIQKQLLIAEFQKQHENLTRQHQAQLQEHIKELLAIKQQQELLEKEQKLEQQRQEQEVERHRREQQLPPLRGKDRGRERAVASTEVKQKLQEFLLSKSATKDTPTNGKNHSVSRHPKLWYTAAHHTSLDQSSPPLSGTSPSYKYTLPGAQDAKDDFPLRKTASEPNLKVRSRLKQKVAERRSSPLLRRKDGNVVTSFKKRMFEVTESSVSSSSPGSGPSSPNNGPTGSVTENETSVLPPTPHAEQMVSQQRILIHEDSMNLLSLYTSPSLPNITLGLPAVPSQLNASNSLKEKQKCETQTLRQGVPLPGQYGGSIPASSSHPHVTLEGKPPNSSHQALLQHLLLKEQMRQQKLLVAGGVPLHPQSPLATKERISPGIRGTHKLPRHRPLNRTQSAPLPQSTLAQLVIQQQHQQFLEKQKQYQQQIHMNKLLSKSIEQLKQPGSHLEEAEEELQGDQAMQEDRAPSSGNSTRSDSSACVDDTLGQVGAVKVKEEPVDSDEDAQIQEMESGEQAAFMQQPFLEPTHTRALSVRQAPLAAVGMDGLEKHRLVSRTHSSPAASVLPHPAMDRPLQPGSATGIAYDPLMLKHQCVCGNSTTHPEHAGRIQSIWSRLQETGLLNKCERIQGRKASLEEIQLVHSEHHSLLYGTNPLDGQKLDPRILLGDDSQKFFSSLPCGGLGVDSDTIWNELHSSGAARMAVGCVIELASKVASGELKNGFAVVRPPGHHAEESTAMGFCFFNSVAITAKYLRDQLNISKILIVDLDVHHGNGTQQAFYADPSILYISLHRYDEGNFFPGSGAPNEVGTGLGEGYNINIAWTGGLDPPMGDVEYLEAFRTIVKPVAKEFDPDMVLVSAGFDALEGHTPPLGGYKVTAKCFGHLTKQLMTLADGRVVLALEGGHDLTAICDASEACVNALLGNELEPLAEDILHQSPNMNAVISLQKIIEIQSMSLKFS
rhHDAC 3, sequence (O15379 whole entry, canonical isoform): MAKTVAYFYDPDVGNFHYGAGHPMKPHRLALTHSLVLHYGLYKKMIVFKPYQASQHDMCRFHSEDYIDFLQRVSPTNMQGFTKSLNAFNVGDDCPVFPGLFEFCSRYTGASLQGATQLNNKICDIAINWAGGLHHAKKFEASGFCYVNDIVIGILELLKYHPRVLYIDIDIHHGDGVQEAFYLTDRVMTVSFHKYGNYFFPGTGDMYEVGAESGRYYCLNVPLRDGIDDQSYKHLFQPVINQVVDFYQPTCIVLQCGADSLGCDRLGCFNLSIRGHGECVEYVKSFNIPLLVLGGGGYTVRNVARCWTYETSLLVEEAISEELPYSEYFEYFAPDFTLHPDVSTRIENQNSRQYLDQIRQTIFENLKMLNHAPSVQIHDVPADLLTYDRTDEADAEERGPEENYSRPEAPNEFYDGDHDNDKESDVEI
rhHDAC 3, sequence (Q9Y618 395-489 partner limits assumed): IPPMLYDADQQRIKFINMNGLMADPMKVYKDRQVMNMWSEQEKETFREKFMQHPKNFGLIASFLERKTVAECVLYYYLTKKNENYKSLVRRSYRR
rhHDAC 2, sequence (Q92769 whole entry, canonical isoform): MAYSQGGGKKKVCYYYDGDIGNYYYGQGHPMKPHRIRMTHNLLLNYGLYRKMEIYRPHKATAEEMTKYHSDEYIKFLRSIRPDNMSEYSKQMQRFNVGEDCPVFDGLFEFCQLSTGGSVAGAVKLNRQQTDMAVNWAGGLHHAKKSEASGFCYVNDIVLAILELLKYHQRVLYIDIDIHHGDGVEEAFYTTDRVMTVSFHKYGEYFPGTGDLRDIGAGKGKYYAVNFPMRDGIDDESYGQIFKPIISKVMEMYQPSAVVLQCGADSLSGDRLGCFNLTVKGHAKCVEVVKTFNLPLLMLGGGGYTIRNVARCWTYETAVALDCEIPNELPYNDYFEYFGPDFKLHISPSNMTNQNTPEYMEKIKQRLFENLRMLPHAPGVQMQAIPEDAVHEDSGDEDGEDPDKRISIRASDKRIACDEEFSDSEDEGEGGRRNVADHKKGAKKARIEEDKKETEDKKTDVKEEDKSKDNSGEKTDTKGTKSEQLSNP
rhHDAC 1, sequence (Q13547 whole entry, canonical isoform): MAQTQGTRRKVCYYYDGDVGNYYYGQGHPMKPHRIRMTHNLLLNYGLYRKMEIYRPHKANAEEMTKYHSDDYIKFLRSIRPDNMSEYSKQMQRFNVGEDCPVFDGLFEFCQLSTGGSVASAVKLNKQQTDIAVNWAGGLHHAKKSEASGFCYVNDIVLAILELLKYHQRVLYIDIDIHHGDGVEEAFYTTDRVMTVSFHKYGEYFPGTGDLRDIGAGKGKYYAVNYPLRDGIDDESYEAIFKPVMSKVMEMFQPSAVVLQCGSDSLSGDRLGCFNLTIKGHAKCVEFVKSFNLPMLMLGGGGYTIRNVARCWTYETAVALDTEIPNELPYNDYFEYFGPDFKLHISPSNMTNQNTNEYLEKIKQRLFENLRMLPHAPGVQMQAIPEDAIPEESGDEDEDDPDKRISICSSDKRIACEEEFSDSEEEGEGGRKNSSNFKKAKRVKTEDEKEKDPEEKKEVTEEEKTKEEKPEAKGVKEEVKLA

On to `O=C(/C=C/c1cccc(S(=O)(=O)Nc2ccc(OC(F)(F)F)cc2)c1)NO` [Compound 5], for which, in [1], the IC50 turned out to be 137 ± 7 nM and the IC90 (commonly the concentration at which the effect reaches the 90% level) was 220 ± 7 nM.

As to `O=C(/C=C/c1cccc(S(=O)(=O)Nc2ccc(OC(F)F)cc2)c1)NO` [Compound 8], the values for the IC50 in assay [1] and in assay [2] were 154 ± 13 nM and 10 ± 2 nM, respectively. Besides, in [1], the IC90 was determined as 306 ± 61 nM.

Consider `O=C(/C=C/c1cccc(S(=O)(=O)N2CCN(c3cccc(Cl)c3)CC2)c1)NO` [Compound 4], for which, in assay [1], the IC50 worked out at 123 ± 6 nM and the IC90 came to 169 ± 8 nM. In addition, the IC50 in [2] is 187 ± 82 nM.

For `CN(CCCCCC(=O)NO)C(=O)/C=C/C=C/c1ccccc1` [Compound 24], in assay [1], the IC50 is over 10000 nM.

Regarding `O=C(/C=C/c1cccc(S(=O)(=O)N2CCN(c3ccccc3Cl)CC2)c1)NO` [Compound 7], in [1], the IC50 turned out to be 154 ± 13 nM and the IC90 is 281 ± 19 nM. In assay [2], the IC50 amounted to 68 ± 36 nM.

Turning to `COc1ccc2nc(/C=C/C(=O)NO)ccc2c1` [Compound 9], the IC50 turned out to be 155 ± 18 nM in assay [1] and 28 ± 4 nM in assay [2]. The IC90 in assay [1] was 310 ± 40 nM.

Consider `O=C(/C=C/c1ccc2c(c1)OCO2)NCCCCCC(=O)NO` [Compound 21], for which the results for the IC50 in assay [1] and in assay [2] were over 10000 nM and 29 ± 16 nM, respectively.

As for `O=C(/C=C/c1cccc(S(=O)(=O)N2CCN(c3ccccc3F)CC2)c1)NO` [Compound 6], in assay [1], the IC50 worked out at 141 ± 9 nM and the concentration for an effect of 90% (IC90) is 224 ± 14 nM. Further, in assay [2], the IC50 is 191 ± 36 nM.

Consider `COc1ccc(NS(=O)(=O)c2cccc(/C=C/C(=O)NO)c2)cc1OC` [Compound 19], for which, in [1], the IC50 came out at 927 ± 57 nM and the IC90 was 2150 ± 140 nM. The IC50 in assay [2] turned out to be 23 ± 5 nM.

Turning to `O=C(/C=C/c1ccccc1)NCCCCCC(=O)NO` [Compound 22], the IC50 was over 10000 nM in [1] and 20 ± 2 nM in assay [2].

For `COc1cccc(NS(=O)(=O)c2cccc(/C=C/C(=O)NO)c2)c1` [Compound 13], in assay [1], the IC50 was 198 ± 21 nM and the IC90 was found to be 333 ± 28 nM. Besides, the IC50 in assay [2] stood at 22 ± 2 nM.

With `O=C(/C=C/c1cccc(S(=O)(=O)N2CCN(Cc3ccc4c(c3)OCO4)CC2)c1)NO` [Compound 14], the IC50 in assay [1] was found to be 261 ± 38 nM; in assay [2] it was 269 ± 87 nM. Moreover, the IC90 in assay [1] came to 485 ± 43 nM.

`CC(/C=C/c1ccccc1)=C\C(=O)NCCCCCC(=O)NO` [Compound 23]: the IC50 in assay [1] was over 10000 nM.

Take `O=C(/C=C/c1cccc(S(=O)(=O)N2CCN(c3ncccn3)CC2)c1)NO` [Compound 1]: the IC50 stood at 34 ± 2 nM in assay [1] and 84 ± 53 nM in [2]. Also, the IC90 in assay [1] is 66 ± 4 nM.

For the molecule `O=C(/C=C/c1cccc(S(=O)(=O)N2CCN(c3ccccn3)CC2)c1)NO` [Compound 3], the IC50 in [1] was found to be 86 ± 9 nM; in assay [2], 123 ± 76 nM; in assay [3] it was 55 ± 6 nM; in assay [4] it was 2.8 ± 0.4 nM; in [5] it was 179 ± 115 nM; in [6], 100 ± 97 nM. The IC50 in assay [7] is 581 ± 334 nM; in [8] it was 86 ± 61 nM. In [1], the IC90 stood at 201 ± 5 nM.

For the molecule `COc1ccccc1N1CCN(S(=O)(=O)c2cccc(/C=C/C(=O)NO)c2)CC1` [Compound 12], the IC50 amounted to 198 ± 5 nM in assay [1]; 22 ± 2 nM in assay [2]; 53 ± 3 nM in assay [9]; 310 ± 28 nM in assay [3]; 96 ± 46 nM in [4]; 305 ± 19 nM in [5]. For the same molecule, the IC50 was determined as 328 ± 193 nM in assay [7] and 145 ± 151 nM in assay [8]. In addition, the IC90 in [1] turned out to be 265 ± 5 nM.

On to `O=C(/C=C/c1cccc(S(=O)(=O)Nc2ccc(Cl)cc2)c1)NO` [Compound 17], for which, in assay [1], the IC50 was 368 ± 23 nM and the 90% effect concentration (IC90) was 651 ± 83 nM. For the same molecule, the IC50 in [2] is 42 ± 11 nM.

As for `O=C(/C=C/c1cccc(S(=O)(=O)N2CCN(c3ccccc3)CC2)c1)NO` [Compound 11], in [1], the IC50 came to 167 ± 12 nM and the 90% effect concentration (IC90) came to 228 ± 2 nM. The IC50 in [2] came out at 132 ± 103 nM.

In the case of `O=C(/C=C/c1cccc(S(=O)(=O)N2CCN(c3ccc(Cl)cc3)CC2)c1)NO` [Compound 2], in assay [1], the IC50 was determined as 64 ± 5 nM and the 90% effect concentration (IC90) amounted to 130 ± 5 nM. In assay [2], the IC50 is 149 ± 6 nM.

For `O=C(/C=C/c1ccc2ccccc2n1)NO` [Compound 16], in [1], the IC50 was 353 ± 16 nM and the IC90 was found to be 648 ± 20 nM. Also, the IC50 in assay [2] amounted to 22 nM.
